From ChEMBL document CHEMBL3879915, “Methods of inhibiting PRMT5” (2014)

Tests used:
PRMT5/MEP50 complex = PRMT5/MEP50 complex (Homo sapiens, UniProt O14744); experiment: Inhibition of recombinant human fetal brain FLAG-tagged PRMT5/full length human testis 6His-tagged MEP50 expressed in baculovirus infected insect Sf9 cells using human histone H4 (1 to 15 residues) as substrate preincubated for 30 mins followed by [3H]-SAM addition
[1] = Antiproliferative activity against human Z138 cells assessed as inhibition of cell viability after 5 days by Cell-Titer Glo assay; format: functional, cell-based; details: Z-138, 120 h

Chain of PRMT5/MEP50 complex (O14744 whole entry, the tested form may be a part): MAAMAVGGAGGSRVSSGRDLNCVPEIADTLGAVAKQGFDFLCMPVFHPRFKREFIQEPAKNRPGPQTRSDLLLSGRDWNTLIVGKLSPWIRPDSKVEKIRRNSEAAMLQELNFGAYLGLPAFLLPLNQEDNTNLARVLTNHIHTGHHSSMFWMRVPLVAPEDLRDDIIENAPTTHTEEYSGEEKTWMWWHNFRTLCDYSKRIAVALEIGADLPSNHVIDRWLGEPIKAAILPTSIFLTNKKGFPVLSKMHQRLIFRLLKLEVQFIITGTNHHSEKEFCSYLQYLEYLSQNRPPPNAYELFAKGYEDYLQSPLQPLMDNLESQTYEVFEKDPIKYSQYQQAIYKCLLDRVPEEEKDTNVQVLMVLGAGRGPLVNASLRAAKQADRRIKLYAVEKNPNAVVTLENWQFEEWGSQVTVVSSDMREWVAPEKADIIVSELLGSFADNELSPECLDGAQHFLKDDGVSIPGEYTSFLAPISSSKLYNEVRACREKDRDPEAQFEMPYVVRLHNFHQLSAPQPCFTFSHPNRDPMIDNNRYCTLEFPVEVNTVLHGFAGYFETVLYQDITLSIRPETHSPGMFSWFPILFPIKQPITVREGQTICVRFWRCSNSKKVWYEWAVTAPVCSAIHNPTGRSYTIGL
Chain of PRMT5/MEP50 complex (Q9BQA1 whole entry, further chain, the tested form may be a part): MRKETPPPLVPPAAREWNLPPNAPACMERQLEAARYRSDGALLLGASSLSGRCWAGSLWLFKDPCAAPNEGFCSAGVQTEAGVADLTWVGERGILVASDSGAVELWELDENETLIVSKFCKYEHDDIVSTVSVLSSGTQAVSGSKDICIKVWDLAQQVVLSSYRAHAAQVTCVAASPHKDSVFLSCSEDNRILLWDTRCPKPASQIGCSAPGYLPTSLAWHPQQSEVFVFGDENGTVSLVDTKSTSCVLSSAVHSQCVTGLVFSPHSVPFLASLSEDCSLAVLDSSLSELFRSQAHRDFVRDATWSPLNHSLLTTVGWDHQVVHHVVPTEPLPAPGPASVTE

SMILES	IC50 (PRMT5/MEP50 complex) [µM]	EC50 [1] [µM]
OC(COCc1ccc(Cl)cc1)CN1CCc2ccccc2C1 (centres undefined)	1 to 10	
OC(COc1ccc2c(c1)OCO2)CN1CCc2ccccc2C1 (centres undefined)	1 to 10	> 20
OC(COc1ccc(C2CCNCC2)cc1)CN1CCc2ccccc2C1 (centres undefined)	1 to 10	10 to 40
OC(COc1cccc(CNC2CCCC2)c1)CN1CCc2ccccc2C1 (centres undefined)	0.101 to 1	10 to 40
CN(C(=O)c1cncn1C)c1cccc(OCC(O)CN2CCc3ccccc3C2)c1 (centres undefined)	1 to 10	
CN1CCCCC1COCC(O)CN1CCc2ccccc2C1 (centres undefined)	> 40	> 40
OC(COc1cccc(-c2ccncc2F)c1)CN1CCc2ccccc2C1 (centres undefined)	1 to 10	
COc1ncc(-c2cccc(OCC(O)CN3CCc4ccccc4C3)c2)cn1 (centres undefined)	1 to 10	
CCC1c2ccccc2CCN1CC(O)COc1cccc(-c2ccc3ncn(C)c3c2)c1 (centres undefined)	0.101 to 1	> 20
OC(COC1CCCC1)CN1CCc2ccccc2C1 (centres undefined)	1 to 10	
COc1cccc2c1CN(CC(O)COc1cccc(-c3ccc4ncn(C)c4c3)c1)CC2 (centres undefined)	1 to 10	
O=C(COCc1cccnc1)NCC(O)CN1CCc2ccccc2C1 (centres undefined)	1 to 10	
CC1CN(CC(O)COc2cccc(-c3ccc4ncn(C)c4c3)c2)Cc2ccccc21 (centres undefined)	1 to 10	
Cn1cc2cc(-c3cccc(OCC(O)CN4CCc5ccccc5C4)c3)ccc2n1 (centres undefined)	1 to 10	
CC1Cc2ccccc2CN1CC(O)COc1cccc(-c2ccc3ncn(C)c3c2)c1 (centres undefined)	1 to 10	
COc1cc2c(cc1OC)CN(CC(O)COc1cccc(-c3ccc4ncn(C)c4c3)c1)CC2 (centres undefined)	> 40	
Cn1cncc1C(=O)Nc1cccc(OC[C@@H](O)CN2CCc3ccccc3C2)c1	1 to 10	
OC(COc1cccc(-c2ccccn2)c1)CN1CCc2ccccc2C1 (centres undefined)	1 to 10	
O=C(Nc1ccccn1)c1cccc(OCC(O)CN2CCc3ccccc3C2)c1 (centres undefined)	0.101 to 1	
OC(COc1cccc(N2CCc3[nH]nc(-c4ccccc4)c3C2)c1)CN1CCc2ccccc2C1 (centres undefined)	1 to 10	
OC(CNc1cc(-c2ccc3ncn(C4CNC4)c3c2)ccn1)CN1CCc2ccccc2C1 (centres undefined)	< 0.1	
Cn1cnc2ccc(-c3cccc(OCC(O)CN4CCc5ccc(Cl)cc5C4)c3)cc21 (centres undefined)	1 to 10	
CN(C(=O)c1cn(C)cn1)c1cccc(OCC(O)CN2CCc3ccccc3C2)c1 (centres undefined)	1 to 10	
CNC(=O)Cn1ccc2cnc(-c3cccc(OCC(O)CN4CCc5ccccc5C4)c3)nc21 (centres undefined)	1 to 10	
O=C(COc1cccc2cccnc12)NC[C@@H](O)CN1Cc2ccccc2C1	1 to 10	

SMILES	IC50 (PRMT5/MEP50 complex) [µM]	EC50 [1] [µM]
COc1cccc2c1CN(CC(O)COc1cccc(CNC3CCCC3)c1)CC2 (centres undefined)	10 to 40	10 to 40
COc1ccc2c(c1)CN(CC(O)COc1cccc(-c3ccc4ncn(C)c4c3)c1)CC2 (centres undefined)	10 to 40	
OC(COc1cccc(-c2cnccn2)c1)CN1CCc2ccccc2C1 (centres undefined)	1 to 10	
O=C(Nc1cccc(OCC(O)CN2CCc3ccccc3C2)c1)c1cnco1 (centres undefined)	1 to 10	
Cn1cnc2nc(-c3cccc(OCC(O)CN4CCc5ccccc5C4)c3)ncc21 (centres undefined)	1 to 10	
OC(COCc1ccc(Cl)cc1Cl)CN1CCc2ccccc2C1 (centres undefined)	1 to 10	
CN1CC(n2cnc3ccc(-c4ccnc(NCC(O)CN5CCc6ccccc6C5)c4)cc32)C1 (centres undefined)	< 0.1	
OC(COCc1ccccn1)CN1CCc2ccccc2C1 (centres undefined)	10 to 40	
Cn1cnc2ccc(-c3cccc(OCC(O)CN4CCc5ccccc5C4CC(N)=O)c3)cc21 (centres undefined)	> 40	
O=C(Nc1cccnc1)c1cccc(OCC(O)CN2CCc3ccccc3C2)c1 (centres undefined)	1 to 10	
O[C@@H](COc1cccc(CNC2CCCC2)c1)CN1CCc2ccccc2C1	1 to 10	10 to 40
COc1c(COCC(O)CN2CCc3ccccc3C2)ccc2ccccc12 (centres undefined)	1 to 10	
COc1cccc(COCC(O)CN2CCc3ccccc3C2)c1 (centres undefined)	1 to 10	> 40
CN(C(=O)c1cocn1)c1cccc(OCC(O)CN2CCc3ccccc3C2)c1 (centres undefined)	10 to 40	
CC(C)(C)OC(=O)N1CCC(OCC(O)CN2CCc3ccccc3C2)C1 (centres undefined)	1 to 10	
O=S1(=O)CCN(c2ccc(OCC(O)CN3CCc4ccccc4C3)cc2)CC1 (centres undefined)	1 to 10	> 20
CCOC(=O)CC1c2ccccc2CCN1CC(O)COc1cccc(-c2ccc3ncn(C)c3c2)c1 (centres undefined)	1 to 10	
CN1CCCc2c(OCC(=O)NCC(O)CN3CCc4ccccc4C3)cccc21 (centres undefined)	0.101 to 1	
O[C@H](COc1cccc(CNC2CCCC2)c1)CN1CCc2ccccc2C1	0.101 to 1	10 to 40
OC(COc1cccc(-c2ccncc2)c1)CN1CCc2ccccc2C1 (centres undefined)	1 to 10	
CN(Cc1ccc(OCC(O)CN2CCc3ccccc3C2)cc1)C1CCCC1 (centres undefined)	1 to 10	> 40
O=C(NC[C@H](O)CN1CCc2ccccc2C1)c1cccc(NC2CCOCC2)c1	< 0.1	0.101 to 1
CCCCNCc1cccc(COCC(O)CN2CCc3ccccc3C2)c1 (centres undefined)	0.101 to 1	> 20
Cc1nn(-c2ccccc2)c(C)c1COCC(O)CN1CCc2ccccc2C1 (centres undefined)	1 to 10	> 40
CC1c2ccccc2CCN1CC(O)COc1cccc(CNC2CCCC2)c1 (centres undefined)	1 to 10	

SMILES	IC50 (PRMT5/MEP50 complex) [µM]	EC50 [1] [µM]
OC(COCc1ccc(OCc2ccccc2)cc1)CN1CCc2ccccc2C1 (centres undefined)	1 to 10	> 20
CN(CC(O)CN1CCc2ccccc2C1)c1cccc(C(=O)NC2CCOCC2)c1 (centres undefined)	10 to 40	
Cn1cnc2ccc(-c3cccc(OCC(O)CN4CCc5c(Cl)cccc5C4)c3)cc21 (centres undefined)	1 to 10	
Cn1cnc2ccc(-c3cccc(OCC(O)CN4CCc5ccccc5C4=O)c3)cc21 (centres undefined)	> 40	
O=C(Nc1cc[nH]n1)c1cccc(OCC(O)CN2CCc3ccccc3C2)c1 (centres undefined)	1 to 10	
CC(C(O)COc1cccc(CNC2CCCC2)c1)N1CCc2ccccc2C1 (centres undefined)	1 to 10	> 40
Cn1cnc2ccc(-c3cccc(OC[C@@H](O)CN4Cc5ccccc5C4)c3)cc21	10 to 50	
Oc1ccc(-c2cccc(OCC(O)CN3CCc4ccccc4C3)c2)cc1 (centres undefined)	1 to 10	
CCOC(=O)C1c2ccccc2CCN1CC(O)COc1cccc(-c2ccc3ncn(C)c3c2)c1 (centres undefined)	> 40	
OC(COc1cccc(-c2cccc(Cl)c2)c1)CN1CCc2ccccc2C1 (centres undefined)	1 to 10	
Cc1cccc2c1CCN(CC(O)COc1cccc(-c3ccc4ncn(C)c4c3)c1)C2 (centres undefined)	1 to 10	
Cn1cnc2ccc(-c3cccc(OC[C@H](O)CN4Cc5ccccc5C4)c3)cc21	1 to 10	
Cn1cnc2ccc(-c3nccc(NCC(O)CN4CCc5ccccc5C4)n3)cc21 (centres undefined)	1 to 10	
CC(C)n1nccc1-c1ccc(OCC(O)CN2CCc3ccccc3C2)cc1 (centres undefined)	10 to 40	> 40
O=C(c1cncc(-c2cccc(OCC(O)CN3CCc4ccccc4C3)c2)c1)N1CCCC1 (centres undefined)	1 to 10	
COc1ccc(Cn2cnc3ccc(-c4ccc(OCC(O)CN5Cc6ccccc6C5)cc4)cc32)cc1 (centres undefined)	1 to 10	
OC(COc1cccc(-c2cncnc2)c1)CN1CCc2ccccc2C1 (centres undefined)	1 to 10	
OC(COc1ccc(-n2cncn2)cc1)CN1CCc2ccccc2C1 (centres undefined)	1 to 10	> 20
OC(COC1CCN(c2ccccc2)C1)CN1CCc2ccccc2C1 (centres undefined)	1 to 10	
CC(C)n1ccc(-c2ccc(OCC(O)CN3CCc4ccccc4C3)cc2)n1 (centres undefined)	1 to 10	> 40
OC(COc1cccc(-c2cc(Cl)cc(C(F)(F)F)c2)c1)CN1CCc2ccccc2C1 (centres undefined)	1 to 10	
C[C@@H](Oc1cccc2cccnc12)C(=O)NC[C@@H](O)CN1Cc2ccccc2C1	1 to 10	
Cn1cnc2ccc(-c3cccc(OCC(O)CN4CCc5ccccc5C4(C)C)c3)cc21 (centres undefined)	1 to 10	
Nc1cccc(C(=O)NCC(O)CN2Cc3ccccc3C2)c1 (centres undefined)	1 to 10	
CC(=O)N1CCC(n2cnc3ccc(-c4cccc(OCC(O)CN5CCc6ccccc6C5)c4)cc32)CC1 (centres undefined)	0.101 to 1	

SMILES	IC50 (PRMT5/MEP50 complex) [µM]	EC50 [1] [µM]
Cc1ccc2c(c1)CN(CC(O)COc1cccc(-c3ccc4ncn(C)c4c3)c1)CC2 (centres undefined)	1 to 10	
CN(C(=O)c1cccnc1)c1cccc(OCC(O)CN2CCc3ccccc3C2)c1 (centres undefined)	1 to 10	
O=C(Nc1cccc(OCC(O)CN2CCc3ccccc3C2)c1)c1cocn1 (centres undefined)	1 to 10	
Cn1cnc2ccc(-c3cccc(OCC(O)CN4Cc5ccccc5C4)c3)cc21 (centres undefined)	1 to 10	
OC(COc1cccc(-c2ccc(C(F)(F)F)cc2)c1)CN1CCc2ccccc2C1 (centres undefined)	1 to 10	
Cn1ccc2ccc(-c3ccnc(NCC(O)CN4CCc5ccccc5C4)c3)cc21 (centres undefined)	< 0.1	
Cn1cncc1C(=O)Nc1cccc(OCC(O)CN2CCc3ccccc3C2)c1 (centres undefined)	1 to 10	
OC(COCc1ccncc1)CN1CCc2ccccc2C1 (centres undefined)	10 to 40	
Cc1cccc2c1CN(CC(O)COc1cccc(-c3ccc4ncn(C)c4c3)c1)CC2 (centres undefined)	1 to 10	
O=C(Nc1cccc(OCC(O)CN2CCc3ccccc3C2)c1)c1ccnnc1 (centres undefined)	1 to 10	
OC(COCc1c(Cl)cccc1Cl)CN1CCc2ccccc2C1 (centres undefined)	1 to 10	10 to 40
CN(C(=O)c1cnco1)c1cccc(OCC(O)CN2CCc3ccccc3C2)c1 (centres undefined)	1 to 10	
O=C(Cn1ccc2cnc(-c3cccc(OCC(O)CN4CCc5ccccc5C4)c3)nc21)N1CCCC1 (centres undefined)	0.101 to 1	
O=C(c1ccc(Cn2ccc(-c3ccc(OCC(O)CN4CCc5ccccc5C4)cc3)n2)cc1)N1CCCC1 (centres undefined)	1 to 10	10 to 40
O=C(Cn1ccc2cnc(-c3cccc(OCC(O)CN4CCc5ccccc5C4)c3)nc21)N1CCCCC1 (centres undefined)	0.101 to 1	
Cn1cnc2ccc(-c3cccc(OCC(O)CN4Cc5ccccc5C(F)(F)C4)c3)cc21 (centres undefined)	> 10	
OC(COc1cccc(-c2cccc(C(F)(F)F)c2)c1)CN1CCc2ccccc2C1 (centres undefined)	1 to 10	
OC(COC1CCN(Cc2ccccc2)CC1)CN1CCc2ccccc2C1 (centres undefined)	1 to 10	> 40
OC(COCc1cccnc1)CN1CCc2ccccc2C1 (centres undefined)	10 to 40	
COc1cccc2c1CCN(CC(O)COc1cccc(-c3ccc4ncn(C)c4c3)c1)C2 (centres undefined)	1 to 10	
CC(C)(C)OC(=O)N1CC(OCC(O)CN2CCc3ccccc3C2)C1 (centres undefined)	1 to 10	> 40
C[C@H](Oc1cccc2cccnc12)C(=O)NC[C@H](O)CN1Cc2ccccc2C1	1 to 10	
Cn1cnc2ccc(-c3cccc(OCC(O)CN4CCc5ccccc5C4Cc4ccccc4)c3)cc21 (centres undefined)	> 40	
COc1cc2c(cc1OC)CN(CC(O)COc1cccc(CNC3CCCC3)c1)CC2 (centres undefined)	> 40	10 to 40
Cn1cnc2ccc(-c3cccc(OCC(O)CN4CCc5ccccc5C4COc4ccccc4)c3)cc21 (centres undefined)	> 40	
